In patent publication EP0674651B1, “SUBSTITUTED 6-AZAANDROSTENONES” (priority 1992, dated 1994):

What was measured:
[1] = target: T1, human type 1 5α-reductase (Homo sapiens, UniProt P18405); experiment: 5α-reductase in vitro inhibitory activity, human type 1
T1 sequence (P18405 1-259): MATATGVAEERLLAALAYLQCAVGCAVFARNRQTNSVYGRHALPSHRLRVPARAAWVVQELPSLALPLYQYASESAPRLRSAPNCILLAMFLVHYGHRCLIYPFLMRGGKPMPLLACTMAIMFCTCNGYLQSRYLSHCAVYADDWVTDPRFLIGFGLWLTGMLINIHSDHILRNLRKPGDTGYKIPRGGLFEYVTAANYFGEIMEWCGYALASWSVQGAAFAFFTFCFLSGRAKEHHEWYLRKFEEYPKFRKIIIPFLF
Procedure: (§1) Microsomes were prepared by homogenization of the tissue or cells, followed by differential centrifugation of the homogenate. […] Corresponding incubations were carried out with no test compound as a control study.
For type 2 IC50 measurements, assay components except testosterone were preincubated for 20 minutes at pH 6.0, and following the addition of 8nM testosterone the assays were allowed to proceed for 20-40 minutes. The percentage of conversion of testosterone to DHT in the presence of test compounds compared to the corresponding conversion in the control study was estimated using high pressure liquid chromatography (HPLC) with radiochemical detection.

[2] = target: T2, human type 2 5α-reductase (Homo sapiens, UniProt P31213); experiment: 5α-reductase in vitro inhibitory activity, human type 2
T2 sequence (P31213 1-254): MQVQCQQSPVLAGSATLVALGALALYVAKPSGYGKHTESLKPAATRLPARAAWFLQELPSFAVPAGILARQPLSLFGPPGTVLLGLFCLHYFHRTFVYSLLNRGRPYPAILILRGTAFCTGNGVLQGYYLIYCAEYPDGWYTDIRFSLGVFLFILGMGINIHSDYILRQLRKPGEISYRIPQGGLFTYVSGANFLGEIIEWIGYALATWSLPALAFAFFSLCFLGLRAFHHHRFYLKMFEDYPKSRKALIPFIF

[3] = target: Rat Prostatic 5α-reductase; experiment: 5α-reductase in vitro inhibitory activity, rat prostatic; conditions: read-out: IC50 Rat Prostatic; microsomes derived from prostate tissue from the rat
Procedure: as §1
The percentage of conversion of testosterone to DHT in the presence of test compounds compared to the corresponding conversion in the control study was estimated using high pressure liquid chromatography (HPLC) with radiochemical detection.

| IC50 [1] [nM] | IC50 [2] [nM] | IC50 [3] [nM] | Compound |
| --- | --- | --- | --- |
| < 10 | < 10 | 10 to 100 | CC(C)CC(=O)OC[C@H]1CC[C@H]2[C@@H]3CNC4=CC(=O)CC[C@]4(C)[C@H]3CC[C@]12C [Compound 27, 17β-Hydroxymethyl-(3-methylbutyrate)-6-azaandrost-4-en-3-one] |
| 10 to 100 | 10 to 100 | < 10 | C[C@]12CC[C@H]3[C@@H](CNC4=CC(=O)CC[C@@]43C)[C@@H]1CC[C@@H]2COC(=O)C(c1ccccc1)c1ccccc1 [Compound 28, 17β-Hydroxymethyl-(2,2-diphenylacetate)-6-azaandrost-4-en-3-one] |
| 10 to 100 | < 10 | 10 to 100 | C[C@]12CC[C@H]3[C@@H](CNC4=CC(=O)CC[C@@]43C)[C@@H]1CC[C@@H]2C(=O)NCc1ccc(C(F)(F)F)cc1 [Compound 30, 17β-N-(4-Trifluoromethylphenyl)methyl-carbamoyl-6-azaandrost-4-en-3-one] |
| 10 to 100 | < 10 | < 10 | C[C@]12CC[C@H]3[C@@H](CNC4=CC(=O)CC[C@@]43C)[C@@H]1CC[C@@H]2C(=O)NCC1CCCCC1 [Compound 31, 17β-methylenecyclohexyl-carbamoyl-6-azaandrost-4-en-3-one] |
| 10 to 100 | < 10 | < 10 | CC(C)(Cc1ccc(F)cc1)NC(=O)[C@H]1CC[C@H]2[C@@H]3CNC4=CC(=O)CC[C@]4(C)[C@H]3CC[C@]12C [Compound 32, 17β-N-(1,1-Dimethyl)-2-(4-fluorophenyl)ethyl-carbamoyl-6-azaandrost-4-en-3-one] |
| > 100 | 10 to 100 | 10 to 100 | CC(C)Oc1ccc(C(=O)[C@H]2CC[C@H]3[C@@H]4CNC5=CC(=O)CC[C@]5(C)[C@H]4CC[C@]23C)cc1 [Compound 33, 17β-(1-Oxo-1 (4-isopropoxyphenyl)methyl)-6-azaandrost-4-en-3-one] |
| 10 to 100 | < 10 | < 10 | C[C@]12CC[C@H]3[C@@H](CNC4=CC(=O)CC[C@@]43C)[C@@H]1CC[C@@H]2C(=O)NC(C1CCCCC1)C1CCCCC1 [Compound 34, 17β-N-(Dicyclohexyl)methyl-carbamoyl-6-azaandrost-4-en-3-one] |
| > 100 | < 10 | < 10 | CC(NC(=O)[C@H]1CC[C@H]2[C@@H]3CNC4=CC(=O)CC[C@]4(C)[C@H]3CC[C@]12C)c1ccccc1 (stereo partly drawn) [Compound 35, 17β-N-(1-Phenyl)ethyl-carbamoyl-6-azaandrost-4-en-3-one] |
| > 100 | < 10 | < 10 | CCCCCCCCCCc1ccc(NC(=O)[C@H]2CC[C@H]3[C@@H]4CNC5=CC(=O)CC[C@]5(C)[C@H]4CC[C@]23C)cc1 [Compound 36, 17β-N-(4-Decyl)phenyl-carbamoyl-6-azaandrost-4-en-3-one] |
| 10 to 100 | < 10 | > 100 | C[C@]12CC[C@H]3[C@@H](CNC4=CC(=O)CC[C@@]43C)[C@@H]1CC[C@@H]2COC(=O)C12CC3CC(CC(C3)C1)C2 [Compound 38, 17β-Hydroxymethyl-(1-adamantylcarboxylate)-6-azaandrost-4-en-3-one] |
| 10 to 100 | < 10 | 10 to 100 | CC1(C)C2CCC(CNC(=O)[C@H]3CC[C@H]4[C@@H]5CNC6=CC(=O)CC[C@]6(C)[C@H]5CC[C@]34C)C1C2 (stereo partly drawn) [Compound 39, 17β-N-Myrantyl-carbamoyl-6-azaandrost-4-en-3-one] |
| 10 to 100 | < 10 | 10 to 100 | Cc1cc(C)c(NC(=O)[C@H]2CC[C@H]3[C@@H]4CNC5=CC(=O)CC[C@]5(C)[C@H]4CC[C@]23C)c(C)c1 [Compound 40, 17β-N-(2,4,6-Trimethyl)phenyl-carbamoyl-6-azaandrost-4-en-3-one] |
| 10 to 100 | < 10 | < 10 | C[C@]12CC[C@H]3[C@@H](CNC4=CC(=O)CC[C@@]43C)[C@@H]1CC[C@@H]2C(=O)NCc1ccc(F)cc1F [Compound 42, 17β-N-(2,4-Difluoro)benzyl-carbamoyl-6-azaandrost-4-en-3-one] |
| < 10 | < 10 | > 100 | C[C@]12CC[C@H]3[C@@H](CNC4=CC(=O)CC[C@@]43C)[C@@H]1CC[C@@H]2C(=O)CC(c1ccccc1)c1ccccc1 [Compound 43, 17β-(1-Oxo-3.3-diphenylpropyl)-6-azaandrost-4-en-3-one] |
| 10 to 100 | < 10 | > 100 | C[C@]12CC[C@H]3[C@@H](CNC4=CC(=O)CC[C@@]43C)[C@@H]1CC[C@@H]2C(=O)Nc1cc(C(F)(F)F)ccc1Cl [Compound 44, 17β-N-(2-Chloro-5-trifluoromethyl)-phenyl-carbamoyl-6-azaandrost-4-en-3-one] |
| > 100 | < 10 | 10 to 100 | CC(NC(=O)[C@H]1CC[C@H]2[C@@H]3CNC4=CC(=O)CC[C@]4(C)[C@H]3CC[C@]12C)C(c1ccccc1)c1ccccc1 (stereo partly drawn) [Compound 45, 17β-N-(2,2-Diphenyl-1-methyl)ethyl-carbamoyl-6-azaandrost-4-en-3-one] |
| 10 to 100 | < 10 | < 10 | Cc1cc(Br)cc(C)c1NC(=O)[C@H]1CC[C@H]2[C@@H]3CNC4=CC(=O)CC[C@]4(C)[C@H]3CC[C@]12C [Compound 46, 17β-N-(2,6-Dimethyl-4-bromo)phenyl-carbamoyl-6-azaandrost-4-en-3-one] |
| 10 to 100 | < 10 | < 10 | C[C@]12CC[C@H]3[C@@H](CNC4=CC(=O)CC[C@@]43C)[C@@H]1CC[C@@H]2C(=O)NC(c1ccc(Cl)cc1)c1ccc(Cl)cc1 [Compound 47] |
| < 10 | < 10 | 10 to 100 | Cc1cc(C(C)(C)C)cc(C)c1NC(=O)[C@H]1CC[C@H]2[C@@H]3CNC4=CC(=O)CC[C@]4(C)[C@H]3CC[C@]12C [Compound 48, 17β-N-(2,6-Dimethyl-4-t-butyl)phenyl-carbamoyl-6-azaandrost-4-en-3-one] |
| < 10 | < 10 | < 10 | CC(C)c1cc(Br)c(NC(=O)[C@H]2CC[C@H]3[C@@H]4CNC5=CC(=O)CC[C@]5(C)[C@H]4CC[C@]23C)c(Br)c1 [Compound 49, 17β-N-(2,6-Dibromo-4-isopropyl)phenyl-carbamoyl-6-azaandrost-4-en-3-one] |
| < 10 | < 10 | 10 to 100 | C[C@]12CC[C@H]3[C@@H](CNC4=CC(=O)CC[C@@]43C)[C@@H]1CC[C@@H]2C(=O)Nc1cc(C(F)(F)F)ccc1C(F)(F)F [Compound 50, 17β-N-(2,5-Ditrifluoromethyl)phenyl-carbamoyl-6-azaandrost-4-en-3-one] |
| > 100 | 10 to 100 | > 100 | CC(C)(C)C1CCC(NC(=O)[C@H]2CC[C@H]3[C@@H]4CNC5=CC(=O)CC[C@]5(C)[C@H]4CC[C@]23C)CC1 (stereo partly drawn) [Compound 51, 17β-N-(4-t-Butyl)cyclohexyl-carbamoyl-6-azaandrost-4-en-3-one] |
| 10 to 100 | < 10 | 10 to 100 | C[C@]12CC[C@H]3[C@@H](CNC4=CC(=O)CC[C@@]43C)[C@@H]1CC[C@@H]2C(=O)Nc1ccccc1Br [Compound 52, 17β-N-(2-Bromo)phenyl-carbamoyl-6-azaandrost-4-en-3-one] |
| 10 to 100 | < 10 | < 10 | C[C@]12CC[C@H]3[C@@H](CNC4=CC(=O)CC[C@@]43C)[C@@H]1CC[C@@H]2C(=O)Nc1ccccc1-c1ccccc1 [Compound 53, 17β-N-(2-Phenyl)phenyl-carbamoyl-6-azaandrost-4-en-3-one] |
| 10 to 100 | < 10 | > 100 | CC(C)c1cccc(C(C)C)c1NC(=O)[C@H]1CC[C@H]2[C@@H]3CNC4=CC(=O)C=C[C@]4(C)[C@H]3CC[C@]12C [Compound 93, 17β-N-(2,6-Di-i-propyl)phenyl-carbamoyl-6-azaandrost-1,4-dien-3-one] |
